Drawing on US12264164B2, “Method of treatment of symptoms of menopause” (KaNDy Therapeutics Limited, priority 2018, dated 2025), this text covers efficacy assessments for 1 compound.

SMILES strings stand for the structures.

This assay relates to post-menopausal women experiencing moderate to severe vasomotor symptoms. Briefly: Efficacy assessments in the Phase 1b/2 study. The format is in vivo, human. Conditions: hard gelatin drug product, 150 mg once daily (three 50 mg capsules), doses tested 50-300 mg for 14 days. As to the method: There were 13 or 15 subjects per dose group.
Repeat once-a-day dosing of 150 mg Compound A gave a geometric mean exposure AUC0-24 5164 ng.hr/mL of the drug at Day 14.

With `Cc1cc(F)ccc1-c1cc(N2C[C@H]3COCCN3C[C@H]2CO)ncc1N(C)C(=O)C(C)(C)c1cc(C(F)(F)F)cc(C(F)(F)F)c1` [Compound A, 2-[3,5-Bis(trifluoromethyl)phenyl]-N-{4-(4-fluoro-2-methylphenyl)-6-[(7S,9aS)-7-(hydroxymethyl)hexahydropyrazino[2,1-c][1,4]oxazin-8(1H)-yl]-3-pyridinyl}-N,2-dimethylpropanamide], the efficacy assessments entry is recorded as “maximum efficacy”.
